How the values were obtained:
[1] = molecular target: Adenosine receptor A2a (Homo sapiens) (UniProt P29274); assay: Displacement of [3H]ZM241385 from human adenosine A2A receptor extracted from human HeLa cell membrane assessed as inhibition of [3H]ZM241385 binding at 10 uM incubated for 30 mins by microplate beta scintillation counter relative to control; format: cell membranes
[2] = molecular target: T1, Adenosine receptor A2b (Homo sapiens) (UniProt P29275); assay: Displacement of [3H]DPCPX from human adenosine A2B receptor extracted from HEK293 cell membrane assessed as inhibition of [3H]DPCPX binding at 10 uM incubated for 30 mins by microplate beta scintillation counter relative to control; format: cell membranes
T1 sequence (whole entry): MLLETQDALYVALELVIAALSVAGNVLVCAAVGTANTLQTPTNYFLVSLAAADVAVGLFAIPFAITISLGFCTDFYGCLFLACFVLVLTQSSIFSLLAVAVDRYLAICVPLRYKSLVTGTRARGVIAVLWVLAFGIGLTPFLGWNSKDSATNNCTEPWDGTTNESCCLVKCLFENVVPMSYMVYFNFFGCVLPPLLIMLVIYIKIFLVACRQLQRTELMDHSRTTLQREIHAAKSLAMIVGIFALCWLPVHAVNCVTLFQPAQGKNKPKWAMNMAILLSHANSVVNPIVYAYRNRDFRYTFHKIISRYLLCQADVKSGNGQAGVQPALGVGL

Adenosine receptor A3 [3] = molecular target: T2, Adenosine receptor A3 (Homo sapiens, UniProt P0DMS8); assay: Displacement of [3H]NECA from human adenosine A3 receptor extracted from human HeLa cell membrane assessed as inhibition constant incubated for 180 mins by microplate scintillation counter; format: cell membranes
T2 sequence (P0DMS8 whole entry): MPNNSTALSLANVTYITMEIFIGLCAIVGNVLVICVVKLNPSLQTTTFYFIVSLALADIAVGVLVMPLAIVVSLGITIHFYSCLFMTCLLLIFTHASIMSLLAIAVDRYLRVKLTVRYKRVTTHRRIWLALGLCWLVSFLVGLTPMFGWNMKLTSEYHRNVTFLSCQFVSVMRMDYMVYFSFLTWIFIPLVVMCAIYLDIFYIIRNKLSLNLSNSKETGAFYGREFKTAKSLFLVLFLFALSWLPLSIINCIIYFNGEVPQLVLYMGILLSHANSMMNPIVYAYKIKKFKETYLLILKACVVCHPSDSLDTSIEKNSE

[4] = molecular target: T3, Adenosine receptor A1 (Homo sapiens) (UniProt P30542); assay: Displacement of [3H]DPCPX from human adenosine A1 receptor extracted from CHO cell membrane assessed as inhibition of [3H]DPCPX binding at 10 uM incubated for 60 mins by microplate beta scintillation counter relative to control; format: cell membranes
T3 sequence (whole entry): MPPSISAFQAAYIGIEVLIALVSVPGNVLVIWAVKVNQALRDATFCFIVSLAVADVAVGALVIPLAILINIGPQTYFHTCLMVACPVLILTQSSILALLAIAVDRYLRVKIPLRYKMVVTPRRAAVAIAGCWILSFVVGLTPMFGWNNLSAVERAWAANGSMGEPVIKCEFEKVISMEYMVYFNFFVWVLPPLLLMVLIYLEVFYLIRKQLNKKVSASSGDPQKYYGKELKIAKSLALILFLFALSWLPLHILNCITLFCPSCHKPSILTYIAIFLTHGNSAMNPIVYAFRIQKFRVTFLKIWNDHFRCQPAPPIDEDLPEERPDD

Adenosine receptor A3 [5] = molecular target: T2, Adenosine receptor A3; assay: Binding affinity to human adenosine A3 receptor assessed as inhibition constant
Adenosine receptor A3 [6] = molecular target: T2, Adenosine receptor A3; assay: Displacement of [125I]iodo-AB-MECA from human adenosine A3 receptor expressed in CHO cells assessed as inhibition constant; format: cell-based
[7] = molecular target: T4, Adenosine receptor A3 (Homo sapiens) (UniProt P0DMS8); assay: Partial agonist activity at human adenosine A3 receptor expressed in CHO cells assessed as cAMP production preincubated for 15 mins followed by forskolin addition and measured after 5 mins by enzyme immunoassay relative to control; format: functional, cell-based; conditions: filed as partial agonist, time 20.0 min
T4 sequence (whole entry): T2 sequence (P0DMS8 whole entry)

[8] = molecular target: T4, Adenosine receptor A3 (Homo sapiens); assay: Antagonist activity at human adenosine A3 receptor expressed in CHO cells assessed as inhibition of cAMP production preincubated for 15 mins followed by NECA addition for 10 mins and measured 5 mins after forskolin addition by enzyme immunoassay relative to control; format: functional, cell-based; conditions: time 30.0 min

Adenosine receptor A2a (Homo sapiens), sequence (P29274 whole entry): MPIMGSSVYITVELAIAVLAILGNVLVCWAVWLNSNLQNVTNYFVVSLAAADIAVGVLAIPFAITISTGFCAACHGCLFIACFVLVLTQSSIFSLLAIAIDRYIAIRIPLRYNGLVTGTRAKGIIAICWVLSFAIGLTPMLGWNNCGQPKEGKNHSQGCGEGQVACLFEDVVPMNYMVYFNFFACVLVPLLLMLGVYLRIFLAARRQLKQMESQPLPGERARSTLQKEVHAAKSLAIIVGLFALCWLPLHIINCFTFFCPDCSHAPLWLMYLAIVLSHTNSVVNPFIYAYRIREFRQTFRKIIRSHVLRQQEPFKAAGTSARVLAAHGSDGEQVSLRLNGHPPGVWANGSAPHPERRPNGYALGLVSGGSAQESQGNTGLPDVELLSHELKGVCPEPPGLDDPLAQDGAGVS

| Ki (Adenosine receptor A3 [5]) [nM] | Ki (Adenosine receptor A3 [6]) [nM] | SMILES | inhibition [1] [%] | inhibition [2] [%] | Ki (Adenosine receptor A3 [3]) [nM] | inhibition [4] [%] | Activity [7] [%] | inhibition [8] [%] |
| --- | --- | --- | --- | --- | --- | --- | --- | --- |
| – | – | O[C@@H]1[C@H](O)C[Se][C@H]1n1cnc2c(NCc3cccc(Cl)c3)ncnc21 | 25 | 30 | 32.5 | 32 | – | – |
| – | – | O[C@@H]1[C@H](O)C[Se][C@H]1n1cnc2c(NCc3cccc(Br)c3)nc(Cl)nc21 | 35 | 43 | 38.4 | 62 | – | – |
| – | – | Nc1nc(Cl)nc2c1ncn2[C@@H]1[Se]C[C@@H](O)[C@H]1O | 12 | 35 | 358 | 22 | – | – |
| – | – | CNc1nc(Cl)nc2c1ncn2[C@@H]1[Se]C[C@@H](O)[C@H]1O | 3 | 28 | 25.2 | 14 | – | – |
| – | – | CNc1ncnc2c1ncn2[C@@H]1[Se]C[C@@H](O)[C@H]1O | 2 | 1 | 31.1 | 7 | – | – |
| 1.4 | – | CNC(=O)C1O[C@@H](n2cnc3c(Nc4cccc(I)c4)nc(Cl)nc32)[C@H](O)[C@@H]1O (stereo partly specified) | – | – | – | – | – | – |
| – | – | CCNc1ncnc2c1ncn2[C@@H]1[Se]C[C@@H](O)[C@H]1O | 2 | 7 | 17.5 | 25 | – | – |
| – | – | O[C@@H]1[C@H](O)C[Se][C@H]1n1cnc2c(NC3CCCC3)nc(Cl)nc21 | 13 | 37 | 16.9 | 54 | – | – |
| – | – | O[C@@H]1[C@H](O)C[Se][C@H]1n1cnc2c(NCc3cccc(I)c3)ncnc21 | 19 | 20 | 43.2 | 25 | – | – |
| – | – | Nc1ncnc2c1ncn2[C@@H]1[Se]C[C@@H](O)[C@H]1O | 33 | 25 | 238 | 10 | – | – |
| – | – | O[C@@H]1[C@H](O)C[Se][C@H]1n1cnc2c(NCc3cccc(F)c3)nc(Cl)nc21 | 7 | 22 | 97.1 | 23 | – | – |
| – | – | O[C@@H]1[C@H](O)C[Se][C@H]1n1cnc2c(NCc3cccc(I)c3)nc(Cl)nc21 | 24 | 67 | 109 | 57 | – | – |
| – | – | CCNc1nc(Cl)nc2c1ncn2[C@@H]1[Se]C[C@@H](O)[C@H]1O | 3 | 18 | 5.2 | 31 | – | – |
| – | 0.38 | CNC(=O)C1S[C@@H](n2cnc3c(Nc4cccc(I)c4)nc(Cl)nc32)[C@H](O)[C@@H]1O (stereo partly specified) | – | – | – | – | – | – |
| – | – | O[C@@H]1[C@H](O)C[Se][C@H]1n1cnc2c(NC3CC3)nc(Cl)nc21 | 6 | 29 | 5.7 | 26 | 87 | 11 |
| – | – | O[C@@H]1[C@H](O)C[Se][C@H]1n1cnc2c(NCc3cccc(F)c3)ncnc21 | 2 | 8 | 121 | 12 | – | – |
| – | – | O[C@@H]1[C@H](O)C[Se][C@H]1n1cnc2c(NCc3cccc(Cl)c3)nc(Cl)nc21 | 29 | 41 | 33.2 | 66 | – | – |
| – | – | O[C@@H]1[C@H](O)C[Se][C@H]1n1cnc2c(NC3CC3)ncnc21 | 9 | 15 | 13.6 | 20 | – | – |
| – | – | O[C@@H]1[C@H](O)C[Se][C@H]1n1cnc2c(NCc3cccc(Br)c3)ncnc21 | 28 | 37 | 20.9 | 39 | – | – |
| – | – | O[C@@H]1[C@H](O)C[Se][C@H]1n1cnc2c(NC3CCCC3)ncnc21 | 16 | 7 | 36.6 | 39 | – | – |
